Values joined by “and” are separate entries in the source; they are usually repeats but may differ in a detail not shown here. Equal entries are not always repeated. Inconclusive results and toxic doses are left out. Cut-off read from the data, not from the text of the source: active = T/C of 150% or more; inactive = T/C below 125%.
Tested on: L1210 leukemia ip in BDF1 mice, survival T/C
Assay: NCI In Vivo Anticancer Drug Screen. Data for tumor model L1210 Leukemia (intraperitoneal) in B6D2F1 (BDF1) mice
Conditions: endpoint: mean survival time, higher = longer survival
Outline: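 In this screen, tumor-bearing mice given compound are compared to those given vehicle, and their survival values are reported as a treated-to-control quotient.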

[1] = dose: 100.0 mg/kg/injection, schedule: Q04DX003 (ip), vehicle: saline with Tween-80
[2] = dose: 200.0 mg/kg/injection, schedule: Q04DX003 (ip), vehicle: saline with Tween-80
[3] = dose: 50.0 mg/kg/injection, schedule: Q01DX009 (ip), vehicle: water
[4] = dose: 50.0 mg/kg/injection, schedule: Q01DX001 (ip), vehicle: carboxymethylcellulose (CMC)
[5] = dose: 100.0 mg/kg/injection, schedule: Q01DX001 (ip), vehicle: carboxymethylcellulose (CMC)
[6] = dose: 200.0 mg/kg/injection, schedule: Q01DX001 (ip), vehicle: carboxymethylcellulose (CMC)
[7] = dose: 400.0 mg/kg/injection, schedule: Q01DX001 (ip), vehicle: carboxymethylcellulose (CMC)
[8] = dose: 100.0 mg/kg/injection, schedule: Q04DX002 (ip), vehicle: Klucel (hydroxypropylcellulose) (HPC)
[9] = dose: 200.0 mg/kg/injection, schedule: Q04DX002 (ip), vehicle: Klucel (hydroxypropylcellulose) (HPC)
[10] = dose: 400.0 mg/kg/injection, schedule: Q04DX002 (ip), vehicle: Klucel (hydroxypropylcellulose) (HPC)
[11] = dose: 100.0 mg/kg/injection, schedule: Q01DX009 (ip), vehicle: Klucel (hydroxypropylcellulose) (HPC)
[12] = dose: 200.0 mg/kg/injection, schedule: Q01DX009 (ip), vehicle: Klucel (hydroxypropylcellulose) (HPC)
[13] = dose: 100.0 mg/kg/injection, schedule: Q04DX003 (ip), vehicle: Klucel (hydroxypropylcellulose) (HPC)
[14] = dose: 200.0 mg/kg/injection, schedule: Q04DX003 (ip), vehicle: Klucel (hydroxypropylcellulose) (HPC)
[15] = dose: 100.0 mg/kg/injection, schedule: Q04DX003 (ip), vehicle: saline

Measured: T/C

O=C1c2ccccc2C(=O)C(Cl)C1Cl (stereo unspecified)
inactive: dose: 1.56 mg/kg/injection, schedule: Q04DX003 (ip), vehicle: other 97 % of control | dose: 3.13 mg/kg/injection, schedule: Q04DX003 (ip), vehicle: other 92 % of control | dose: 6.25 mg/kg/injection, schedule: Q04DX003 (ip), vehicle: other 96 % of control and 100 % of control

O=C1C2CCCC1C(c1ccccc1)C=C2c1ccc(O)cc1 (stereo unspecified)
inactive: [1] 97 % of control | [2] 96 % of control | dose: 400.0 mg/kg/injection, schedule: Q04DX003 (ip), vehicle: saline with Tween-80 94 % of control

CC/C=C/C1(C(C)C)C(=O)NC(=O)NC1=O
inactive: dose: 75.0 mg/kg/injection, schedule: Q01DX001 (ip), vehicle: saline 103 % of control | dose: 150.0 mg/kg/injection, schedule: Q01DX001 (ip), vehicle: saline 105 % of control

CC(=O)Nc1ccc2cnn(C(C)=O)c2c1
inactive: [3] 94 % of control | dose: 100.0 mg/kg/injection, schedule: Q01DX009 (ip), vehicle: water 98 % of control | dose: 100.0 mg/kg/injection, schedule: Q04DX003 (ip), vehicle: water 104 % of control | dose: 200.0 mg/kg/injection, schedule: Q01DX009 (ip), vehicle: water 100 % of control | dose: 200.0 mg/kg/injection, schedule: Q04DX003 (ip), vehicle: water 94 % of control | dose: 400.0 mg/kg/injection, schedule: Q04DX003 (ip), vehicle: water 106 % of control

CN(N=O)c1ccc(/C=C/c2ccnc3ccccc23)cc1
inactive: [4] 98 % of control | [5] 93 % of control | [6] 93 % of control | [7] 91 % of control

NCc1cccc(OCCOc2ccccc2)c1
inactive: dose: 100.0 mg/kg/injection, schedule: Q01DX001 (ip), vehicle: saline with Tween-80 102 % of control | dose: 200.0 mg/kg/injection, schedule: Q01DX001 (ip), vehicle: saline with Tween-80 97 % of control | dose: 400.0 mg/kg/injection, schedule: Q01DX001 (ip), vehicle: saline with Tween-80 103 % of control

Cc1cc(Cl)ccc1OCC(=O)NCC(C)O (stereo unspecified)
inactive: [8] 100 % of control | [9] 98 % of control | [10] 98 % of control

O=C(O)C(Nc1cccc2ccccc12)c1ccccc1 (stereo unspecified)
inactive: [8] 97 % of control | [9] 111 % of control

CN(C)C(=S)SSSSC(=S)N(C)C
inactive: [8] 108 % of control | [9] 108 % of control | [10] 99 % of control and 90 % of control

O=c1[nH]c(CC(O)C(Cl)(Cl)Cl)nc2ccccc12 (stereo unspecified)
inactive: dose: 50.0 mg/kg/injection, schedule: Q01DX009 (ip), vehicle: Klucel (hydroxypropylcellulose) (HPC) 100 % of control | [11] 100 % of control | [12] 103 % of control

O=C(NC1CCC(CC2CCCCC2)CC1)C(Cl)Cl (stereo unspecified)
inactive: [11] 91 % of control | [13] 93 % of control | [12] 93 % of control | [14] 88 % of control | dose: 400.0 mg/kg/injection, schedule: Q01DX009 (ip), vehicle: Klucel (hydroxypropylcellulose) (HPC) 91 % of control | dose: 400.0 mg/kg/injection, schedule: Q04DX003 (ip), vehicle: Klucel (hydroxypropylcellulose) (HPC) 109 % of control

Cc1cccc(NC(=O)/C=N/O)c1C
inactive: [13] 98 % of control | [14] 98 % of control

Cc1cccc(/C2=C/CCCCCC2)c1
inactive: dose: 37.5 mg/kg/injection, schedule: Q01DX009 (ip), vehicle: saline 100 % of control | dose: 75.0 mg/kg/injection, schedule: Q01DX001 (ip), vehicle: acetone 89 % of control | dose: 75.0 mg/kg/injection, schedule: Q01DX009 (ip), vehicle: saline 103 % of control | dose: 150.0 mg/kg/injection, schedule: Q01DX001 (ip), vehicle: acetone 88 % of control | dose: 150.0 mg/kg/injection, schedule: Q01DX009 (ip), vehicle: saline 115 % of control | dose: 225.0 mg/kg/injection, schedule: Q01DX009 (ip), vehicle: acetone 92 % of control | dose: 300.0 mg/kg/injection, schedule: Q01DX001 (ip), vehicle: acetone 93 % of control

NC(N)=N/N=C/c1cc([N+](=O)[O-])ccc1O
inactive: dose: 15.0 mg/kg/injection, schedule: Q01DX Z (ip), vehicle: saline 120 % of control | dose: 30.0 mg/kg/injection, schedule: Q01DX Z (ip), vehicle: saline 98 % of control | dose: 60.0 mg/kg/injection, schedule: Q01DX Z (ip), vehicle: saline 98 % of control | dose: 60.0 mg/kg/injection, schedule: Q01DX Z (oral), vehicle: saline 100 % of control | dose: 120.0 mg/kg/injection, schedule: Q01DX Z (ip), vehicle: saline 96 % of control | dose: 120.0 mg/kg/injection, schedule: Q01DX Z (oral), vehicle: saline 96 % of control

CC(=O)OC1CCC(NC(=O)NCCF)CC1 (stereo unspecified)
inactive: dose: 100.0 mg/kg/injection, schedule: Q01DX001 (ip), vehicle: other 98 % of control | dose: 200.0 mg/kg/injection, schedule: Q01DX001 (ip), vehicle: other 104 % of control | dose: 400.0 mg/kg/injection, schedule: Q01DX001 (ip), vehicle: other 115 % of control

CC[N+](CC)(CC)CCCC[N+](CC)(CC)CC
inactive: dose: 12.5 mg/kg/injection, schedule: Q01DX009 (ip), vehicle: water 100 % of control | dose: 25.0 mg/kg/injection, schedule: Q01DX009 (ip), vehicle: water 96 % of control | [3] 90 % of control

CCCCCCCCOB(OCCCCCCCC)OCCCCCCCC
inactive: [4] 96 % of control | [5] 100 % of control | dose: 100.0 mg/kg/injection, schedule: Q01DX009 (ip), vehicle: saline with Tween-80 96 % of control | [1] 98 % of control | [6] 96 % of control | dose: 200.0 mg/kg/injection, schedule: Q01DX009 (ip), vehicle: saline with Tween-80 95 % of control | [2] 94 % of control | [7] 100 % of control

CCOC(=O)CC(=O)CCc1ccccc1
inactive: dose: 100.0 mg/kg/injection, schedule: Q01DX001 (ip), vehicle: saline 104 % of control | dose: 100.0 mg/kg/injection, schedule: Q01DX009 (ip), vehicle: saline 94 % of control and 100 % of control | dose: 100.0 mg/kg/injection, schedule: Q04DX002 (ip), vehicle: saline 103 % of control and 105 % of control | [15] 113 % of control | dose: 200.0 mg/kg/injection, schedule: Q01DX001 (ip), vehicle: saline 104 % of control | dose: 200.0 mg/kg/injection, schedule: Q01DX009 (ip), vehicle: saline 94 % of control and 102 % of control | dose: 200.0 mg/kg/injection, schedule: Q04DX002 (ip), vehicle: saline 100 % of control and 108 % of control | dose: 200.0 mg/kg/injection, schedule: Q04DX003 (ip), vehicle: saline 106 % of control | dose: 400.0 mg/kg/injection, schedule: Q01DX001 (ip), vehicle: saline 103 % of control | dose: 400.0 mg/kg/injection, schedule: Q01DX009 (ip), vehicle: saline 92 % of control and 97 % of control | dose: 400.0 mg/kg/injection, schedule: Q04DX002 (ip), vehicle: saline 96 % of control and 102 % of control | dose: 400.0 mg/kg/injection, schedule: Q04DX003 (ip), vehicle: saline 105 % of control

COC1OC(CBr)C(Br)C(OC(=O)c2ccccc2)C1OC(=O)c1ccccc1 (stereo unspecified)
inactive: dose: 75.0 mg/kg/injection, schedule: Q04DX002 (ip), vehicle: Klucel (hydroxypropylcellulose) (HPC) 103 % of control | dose: 150.0 mg/kg/injection, schedule: Q04DX002 (ip), vehicle: Klucel (hydroxypropylcellulose) (HPC) 98 % of control | dose: 300.0 mg/kg/injection, schedule: Q04DX002 (ip), vehicle: Klucel (hydroxypropylcellulose) (HPC) 98 % of control

C[N+](C)(C)C1(Cc2ccccc2)c2ccccc2-c2ccccc21
inactive: dose: 25.0 mg/kg/injection, schedule: Q01DX009 (ip), vehicle: saline 93 % of control | dose: 25.0 mg/kg/injection, schedule: Q04DX003 (ip), vehicle: saline 96 % of control | dose: 50.0 mg/kg/injection, schedule: Q01DX009 (ip), vehicle: saline 114 % of control | dose: 50.0 mg/kg/injection, schedule: Q04DX003 (ip), vehicle: saline 99 % of control | [1] 97 % of control | [15] 86 % of control

CC(=O)c1ccc(Cl)cc1
inactive: [5] 91 % of control | [6] 91 % of control | [7] 97 % of control
